{
  "source": "patent US20170368049A1",
  "about": "(HANMI PHARM. CO., LTD., priority 2015, published 2017)",
  "experiment": "Photoreaction test with cholecalciferol (photostability chamber)",
  "format": "physicochemical",
  "details": "photostability chamber, 1,200,000 LUX, 18.44 hours",
  "protocol": "Cholecalciferol (vitamin D3) also has poor physiochemical stability and may not ensure stability with time. Generally, cholecalciferol is known to be susceptible to moisture, light, and heat. […] The amount of trans-vitamin D3 (after storage in a photostability chamber under 1,200,000 LUX for 18.44 hours) was increased by about 1.2% with respect to initial level, while the amount of vitamin D3 was reduced by about 10%.",
  "data": [
    {"smiles": "C=C1CC[C@H](O)C/C1=C/C=C1\\CCC[C@]2(C)[C@@H]([C@H](C)CCCC(C)C)CC[C@@H]12", "note": "[cholecalciferol, Cholecalciferol]", "values": [
      {"measurement": "increase of the amount of trans-vitamin D3 with respect to initial level", "value": "about 1.2%"},
      {"measurement": "reduction of the amount of vitamin D3", "value": "about 10%"}
    ]}
  ]
}
